Test results as given in ChEMBL document CHEMBL4665784, “Discovery of an Inhibitor for the TREK-1 Channel Targeting an Intermediate Transition State of Channel Gating” (J Med Chem, 2020).
Calls of active or inactive are those of the source. No cut-off for these calls is given here.

Legend:
Type in all cases: cell-based
[1] = molecular target: T1, Potassium channel subfamily K member 2 (Homo sapiens) (UniProt O95069); assay: Inhibition of human TREK1 R207A mutant at intermediate transition state expressed in CHO cells by whole-cell patch-clamp electrophysiological method
T1 sequence (whole entry): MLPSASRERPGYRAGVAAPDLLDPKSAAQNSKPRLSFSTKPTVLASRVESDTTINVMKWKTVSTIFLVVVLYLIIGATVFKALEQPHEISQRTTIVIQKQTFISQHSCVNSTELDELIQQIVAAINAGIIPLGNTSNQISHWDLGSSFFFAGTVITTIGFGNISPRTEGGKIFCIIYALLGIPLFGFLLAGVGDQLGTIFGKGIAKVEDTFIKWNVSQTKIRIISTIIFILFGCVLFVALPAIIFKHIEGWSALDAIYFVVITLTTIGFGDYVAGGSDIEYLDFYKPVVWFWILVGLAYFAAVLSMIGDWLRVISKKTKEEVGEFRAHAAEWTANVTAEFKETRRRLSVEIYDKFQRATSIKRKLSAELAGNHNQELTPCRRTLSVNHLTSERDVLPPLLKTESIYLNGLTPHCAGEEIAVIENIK

[2] = molecular target: T1, Potassium channel subfamily K member 2 (Homo sapiens); assay: Inhibition of human TREK1 T211A mutant at intermediate transition state expressed in CHO cells by whole-cell patch-clamp electrophysiological method
[3] = molecular target: T2, Potassium channel subfamily K member 2 (Homo sapiens, UniProt O95069); assay: (§1) Inhibition of human TREK1 at intermediate transition state expressed in CHO cells by whole-cell patch-clamp electrophysiological method
T2 sequence (O95069 whole entry): T1 sequence (whole entry)

[4] = molecular target: T1, Potassium channel subfamily K member 2 (Homo sapiens); assay: as §1
[5] = molecular target: T1, Potassium channel subfamily K member 2 (Homo sapiens); assay: Inhibition of human TREK1 M291A mutant at intermediate transition state expressed in CHO cells by whole-cell patch-clamp electrophysiological method
[6] = molecular target: T3, Potassium channel subfamily K member 10 (Homo sapiens) (UniProt P57789); assay: Inhibition of human TREK2 at intermediate transition state expressed in CHO cells by whole-cell patch-clamp electrophysiological method
T3 sequence (whole entry): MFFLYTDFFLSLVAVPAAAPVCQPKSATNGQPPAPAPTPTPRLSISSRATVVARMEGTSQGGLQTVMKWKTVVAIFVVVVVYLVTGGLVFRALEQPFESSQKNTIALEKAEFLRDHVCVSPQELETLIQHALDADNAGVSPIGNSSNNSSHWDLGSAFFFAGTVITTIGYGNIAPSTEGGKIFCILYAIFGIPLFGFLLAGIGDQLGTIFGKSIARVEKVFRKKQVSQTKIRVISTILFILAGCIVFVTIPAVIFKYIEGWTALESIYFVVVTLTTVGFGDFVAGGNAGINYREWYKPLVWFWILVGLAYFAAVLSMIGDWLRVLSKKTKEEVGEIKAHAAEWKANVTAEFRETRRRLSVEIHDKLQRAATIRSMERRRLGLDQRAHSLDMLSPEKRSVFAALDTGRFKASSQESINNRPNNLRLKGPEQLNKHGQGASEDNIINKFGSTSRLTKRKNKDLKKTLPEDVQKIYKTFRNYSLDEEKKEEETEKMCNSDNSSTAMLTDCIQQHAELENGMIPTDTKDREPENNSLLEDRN

[7] = molecular target: T1, Potassium channel subfamily K member 2 (Homo sapiens); assay: Inhibition of human TREK1 in open state expressed in CHO cells in presence of 10 uM TREK1 activator arachidonic acid by whole-cell patch-clamp electrophysiological method
[8] = molecular target: T1, Potassium channel subfamily K member 2 (Homo sapiens); assay: Inhibition of human TREK1 S290A mutant at intermediate transition state expressed in CHO cells by whole-cell patch-clamp electrophysiological method
[9] = molecular target: T1, Potassium channel subfamily K member 2 (Homo sapiens); assay: Inhibition of human TREK1 W295A mutant at intermediate transition state expressed in CHO cells by whole-cell patch-clamp electrophysiological method
[10] = molecular target: T4, Potassium channel subfamily K member 4 (Homo sapiens) (UniProt Q9NYG8); assay: Inhibition of human TRAAK at intermediate transition state expressed in CHO cells by whole-cell patch-clamp electrophysiological method
T4 sequence (whole entry): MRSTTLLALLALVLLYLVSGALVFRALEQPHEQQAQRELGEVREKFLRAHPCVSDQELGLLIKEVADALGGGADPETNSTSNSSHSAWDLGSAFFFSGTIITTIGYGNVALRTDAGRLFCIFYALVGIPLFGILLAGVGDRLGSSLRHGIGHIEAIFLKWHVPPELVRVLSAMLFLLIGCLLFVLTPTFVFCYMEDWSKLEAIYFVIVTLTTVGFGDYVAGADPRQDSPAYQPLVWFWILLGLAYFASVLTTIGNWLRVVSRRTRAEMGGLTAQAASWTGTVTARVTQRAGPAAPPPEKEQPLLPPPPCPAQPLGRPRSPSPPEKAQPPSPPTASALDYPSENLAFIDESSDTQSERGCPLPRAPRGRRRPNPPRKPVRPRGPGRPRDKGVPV

[11] = molecular target: T1, Potassium channel subfamily K member 2 (Homo sapiens); assay: Inhibition of human TREK1 D294A mutant at intermediate transition state expressed in CHO cells by whole-cell patch-clamp electrophysiological method
[12] = molecular target: T1, Potassium channel subfamily K member 2 (Homo sapiens); assay: Inhibition of human TREK1 V288A mutant at intermediate transition state expressed in CHO cells by whole-cell patch-clamp electrophysiological method
[13] = molecular target: T1, Potassium channel subfamily K member 2 (Homo sapiens); assay: Inhibition of human TREK1 at intermediate transition state expressed in CHO cells assessed as decrease in probability of TREK1 channel being in open state by single-channel recordings based by inside-out patch method
[14] = molecular target: T1, Potassium channel subfamily K member 2 (Homo sapiens); assay: Effect on channel conductance of human TREK1 expressed in CHO cells by single-channel recordings based by inside-out patch method

SMILES: CNCCC(Oc1ccc(C(F)(F)F)cc1)c1ccccc1 (stereo unspecified)
- inhibition [1]: inactive

SMILES: O=C(CSc1ccc2ccccc2n1)NNC(=O)c1ccc(Cl)cc1
- inhibition [2]: inactive
- inhibition [1]: Active
- IC50 [3]: 2990 nM
- inhibition [4]: Dose-dependent effect
- inhibition [5]: inactive
- inhibition [6]: Active
- inhibition [7]: inactive
- inhibition [8]: Active
- inhibition [9]: inactive
- inhibition [10]: inactive
- inhibition [11]: inactive
- inhibition [12]: Active
- inhibition [13]: Active
- Activity [14]: inactive

SMILES: COc1ccc2nc(SCC(=O)NNC(=O)c3ccc(Cl)cc3)ccc2c1
- inhibition [4]: Active
- inhibition [8]: inactive
- inhibition [11]: Active

SMILES: O=C(CSc1ccc2cc(F)ccc2n1)NNC(=O)c1ccc(Cl)cc1
- inhibition [4]: Active
- inhibition [8]: Active
- inhibition [11]: inactive
